Laboratory results: ChEMBL document CHEMBL4665811, “Sila-Ibuprofen” (J Med Chem, 2020)
Converted amounts (≈) assume the structure as drawn.

Assays:
C6 [1] = test: Toxicity in rat C6 cells assessed as effect on cell proliferation at 300 uM incubated up to 3 days by LDH release assay; format: cell-based; settings: c6, 72 h, time <=3 day
C6 [2] = test: Toxicity in rat C6 cells assessed as effect on extracellular lactate dehydrogenase activity at 1000 uM incubated for 3 days by LDH release assay; format: cell-based; settings: c6, 72 h, time 3 day
C6 [3] = test: Toxicity in rat C6 cells assessed as effect on cellular protein per well up to 300 uM incubated for 72 hrs; format: cell-based; settings: c6, 72 h
C6 [4] = test: Toxicity in rat C6 cells assessed as effect on cell viability up to 300 uM incubated for 72 hrs by LDH release assay; format: cell-based; settings: c6, 72 h
[5] = Solubility in water by HPLC/UV analysis; format: physicochemical
C6 [6] = test: Toxicity in rat C6 cells assessed as effect on cellular viability up to 300 uM incubated for 72 hrs by WST1 assay; format: cell-based; settings: c6, 72 h
C6 [7] = test: Toxicity in rat C6 cells assessed as effect on cellular lactate production to 300 uM incubated for 72 hrs; format: cell-based; settings: c6, 72 h
C6 [8] = test: Toxicity in rat C6 cells assessed as reduction in cell proliferation at 1000 uM incubated up to 3 days by LDH release assay; format: cell-based; settings: c6, 72 h, time <=3 day
[9] = biological target: T1, Prostaglandin G/H synthase 2 (Homo sapiens, UniProt P35354); test: Inhibition of human recombinant COX2 expressed in Sf9 cells using arachidonic acid and ADHP incubated for 5 mins by fluorimetry
T1 sequence (P35354 whole entry): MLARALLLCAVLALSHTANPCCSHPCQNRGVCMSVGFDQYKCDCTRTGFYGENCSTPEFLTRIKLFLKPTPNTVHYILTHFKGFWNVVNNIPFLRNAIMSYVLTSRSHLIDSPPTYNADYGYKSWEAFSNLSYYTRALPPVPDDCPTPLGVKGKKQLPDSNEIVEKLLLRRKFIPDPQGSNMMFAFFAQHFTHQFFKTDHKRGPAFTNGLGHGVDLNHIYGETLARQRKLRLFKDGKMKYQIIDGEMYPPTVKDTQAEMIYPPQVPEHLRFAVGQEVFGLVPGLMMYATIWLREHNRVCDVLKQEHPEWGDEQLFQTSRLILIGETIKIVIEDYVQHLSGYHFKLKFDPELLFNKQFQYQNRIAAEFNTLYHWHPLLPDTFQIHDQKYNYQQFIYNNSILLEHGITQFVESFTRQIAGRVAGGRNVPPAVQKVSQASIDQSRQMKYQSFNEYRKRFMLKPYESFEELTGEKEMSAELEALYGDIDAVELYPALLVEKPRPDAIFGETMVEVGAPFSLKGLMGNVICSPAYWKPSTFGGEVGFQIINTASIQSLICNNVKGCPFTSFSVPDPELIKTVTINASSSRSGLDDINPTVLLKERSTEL

C6 [10] = test: Toxicity in rat C6 cells assessed as reduction in protein content at 1000 uM incubated up to 3 days; format: cell-based; settings: c6, 72 h, time <= day
C6 [11] = test: Toxicity in rat C6 cells assessed as effect on cell morphology at 1000 uM incubated for 3 days; format: cell-based; settings: c6, 72 h, time 3 day
[12] = biological target: Prostaglandin G/H synthase 1 (Homo sapiens, UniProt P23219); test: Inhibition of human recombinant COX1 expressed in Sf9 cells using arachidonic acid and ADHP incubated for 3 mins by fluorimetry
Prostaglandin G/H synthase 1, sequence (P23219 whole entry): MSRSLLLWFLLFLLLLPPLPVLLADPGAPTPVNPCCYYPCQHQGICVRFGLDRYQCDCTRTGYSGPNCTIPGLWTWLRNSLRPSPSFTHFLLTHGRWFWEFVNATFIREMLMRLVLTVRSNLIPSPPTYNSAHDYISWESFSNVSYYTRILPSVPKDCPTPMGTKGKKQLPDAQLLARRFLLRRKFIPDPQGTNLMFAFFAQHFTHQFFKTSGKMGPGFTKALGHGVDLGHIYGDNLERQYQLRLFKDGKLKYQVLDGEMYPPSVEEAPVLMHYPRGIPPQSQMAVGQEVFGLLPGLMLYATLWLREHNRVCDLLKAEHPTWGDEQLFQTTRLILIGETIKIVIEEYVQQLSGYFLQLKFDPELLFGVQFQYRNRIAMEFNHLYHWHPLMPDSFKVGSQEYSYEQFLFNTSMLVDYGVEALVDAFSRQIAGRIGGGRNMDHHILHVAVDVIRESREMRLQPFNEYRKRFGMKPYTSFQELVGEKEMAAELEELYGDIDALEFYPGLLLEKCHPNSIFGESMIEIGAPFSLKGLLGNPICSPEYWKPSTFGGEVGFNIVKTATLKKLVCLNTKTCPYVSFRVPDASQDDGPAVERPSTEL

C6 [13] = test: Toxicity in rat C6 cells assessed as effect on cellular viability at 1000 uM incubated up to 3 days by WST1 assay; format: cell-based; settings: c6, 72 h, time <=3 day

| Compound | Activity (C6 [1]) | Activity (C6 [2]) | Activity (C6 [3]) | Activity (C6 [4]) | solubility [5] | Activity (C6 [6]) | Activity (C6 [7]) | Activity (C6 [8]) | IC50 [9] | Activity (C6 [10]) | Activity (C6 [11]) | IC50 [12] | Activity (C6 [13]) |
| --- | --- | --- | --- | --- | --- | --- | --- | --- | --- | --- | --- | --- | --- |
| CC(C(=O)O)c1ccc(C[SiH](C)C)cc1 (stereo unspecified) | Non-Toxic | Non-Toxic | Non-Toxic | Non-Toxic | 83 µg/mL (≈ 373 µM) | Non-Toxic | Non-Toxic | Toxic | 8.3 µM | Toxic | Non-Toxic | 26 µM | Toxic |
| CC(C)Cc1ccc(C(C)C(=O)O)cc1 (stereo unspecified) [IBUPROFEN] | Non-Toxic | Non-Toxic | Non-Toxic | Non-Toxic |  | Non-Toxic | Non-Toxic | Toxic |  |  | Non-Toxic |  |  |
